Each structure is given as a SMILES string. Structures can show the parent of a compound that is named as a salt.

In this experiment the test system is HCT116. Put plainly: Inhibition of cell proliferation, HCT116. In kind it is cell-based. Particulars: Homo sapiens, HCT-116; 72 h treatment; methylene blue or CellTiter-Glo. How it is done:
II. Inhibition of Cell Proliferation by PLK1 Inhibitors.
Exponentially growing cell lines of different tumor origins, cultured in appropriate media containing 10% fetal bovine serum at 37° C. in a 5% CO2 incubator were plated in 96 or 384-well plates. Twenty four hours post-plating, cells were treated with different concentrations of test compounds ranging from 20 μM to 0.04 nM. Several wells were left untreated as a control. Seventy two hours post-treatment, cell numbers were determined using different techniques; 100 μl per well of methylene blue (Sigma M9140) (0.5% in 50:50 Ethanol:water), or 10-100 μl per well of CellTiter-Glo (Promega #G7573), depending on well size. For methylene blue staining, stain was incubated at room temperature for 30 minutes before plates were rinsed and dye solubilized in 1% N-lauroyl sarcosine, sodium salt, (Sigma L5125, in PBS). Plates were read on a microplate reader, measuring the OD at 620 nm. For CellTiter-Glo, plates were incubated at room temperature for 15 minutes and the chemiluminescent signal was read on the Victor V or Envison 2100 reader.
Percent inhibition of cell growth was expressed as percent proliferation relative to 100% proliferation (control). Concentration of test compound that inhibited 50% of cell growth (IC50) was determined by 4 parameter fit of data using XLfit, (value of no cell control was substracted from all samples for background). The data are shown in Table 1 and Table 2 below and represent a compilation of several different experiments each performed using the general parameters outlined above, although minor variations may have been employed in some instances, in Table 1 and Table 2, +=IC50>1 μM; ++=IC50 0.5-1 μM: +++=IC50<0.5 μM.
In turn, `C[C@@H](Oc1cc(-n2cnc3cc(F)c(Cl)cc32)sc1C(N)=O)c1cccc(OC2CCNCC2)c1Cl` [Example 69, 5-(6-Chloro-5-fluoro-1H-benzimidazol-1-yl)-3-({(1R)-1-[2-chloro-3-(4-piperidinyloxy)phenyl]ethyl}oxy)-2-thiophenecarboxamide] showed an IC50 of less than 0.5 µM.

In the case of `C[C@@H](Oc1cc(-n2cnc3cc(OC(F)(F)F)ccc32)sc1C(N)=O)c1cccc(OC2CCNCC2)c1Cl` [Example 61], the IC50 was less than 0.5 µM.

Molecule `C[C@@H](Oc1cc(-n2cnc3cc(-c4cnn(C)c4)ccc32)sc1C(N)=O)c1cccc(OCC2CCNCC2)c1Cl` [Example 44, 3-[((1R)-1-{2-Chloro-3-[(4-piperidinylmethyl)oxy]phenyl}ethyl)oxy]-5-[5-(1-methyl-1H-pyrazol-4-yl)-1H-benzimidazol-1-yl]-2-thiophenecarboxamide trifluoroacetate] came in with an IC50 of less than 0.5 µM.

The molecule `C[C@@H](Oc1cc(-n2cnc3cc(Cl)ccc32)sc1C(N)=O)c1cccc(OC2CCN(CCS(C)(=O)=O)CC2)c1Cl` [Example 23, 5-(5-Chloro-1H-benzimidazol-1-yl)-3-({(1R)-1-[2-chloro-3-({1-[2-(methylsulfonyl)ethyl]-4-piperidinyl}oxy)phenyl]ethyl}oxy)-2-thiophenecarboxamide] returned an IC50 of less than 0.5 µM.

For `CC(Oc1cc(-n2cnc3cc(-c4cnn(C)c4)ccc32)sc1C(N)=O)c1ccnc(OC2CCN(C)CC2)c1` (stereo not shown) [Example 80], the half-maximal inhibitory concentration (IC50) is greater than 1 µM.

In the case of `C[C@@H](Oc1cc(-n2cnc3cc(-c4cnn(C)c4)ccc32)sc1C(N)=O)c1cccc(OC2CCN(CCF)CC2)c1Cl` [Example 29, 3-{[(1R)-1-(2-Chloro-3-{[1-(2-fluoroethyl)-4-piperidinyl]oxy}phenyl)ethyl]oxy}-5-[5-(1-methyl-1H-pyrazol-4-yl)-1H-benzimidazol-1-yl]-2-thiophenecarboxamide], the IC50 is less than 0.5 µM.

Take `C[C@@H](Oc1cc(-n2cnc3cc(-c4cnn(C)c4)ccc32)sc1C(N)=O)c1cccc(OC2CCN(CCC(F)(F)F)CC2)c1Cl` [Example 30, 3-{[(1R)-1-(2-chloro-3-{[1-(3,3,3-trifluoropropyl)-4-piperidinyl]oxy}phenyl)ethyl]oxy}-5-[5-(1-methyl-1H-pyrazol-4-yl)-1H-benzimidazol-1-yl]-2-thiophenecarboxamide]: the half-inhibitory concentration (IC50) was less than 0.5 µM.

Molecule `C[C@@H](Oc1cc(-n2cnc3ccccc32)sc1C(N)=O)c1cccc(OC2CCNCC2)c1Cl` [Example 14, 5-(1H-Benzimidazol-1-yl)-3-({(1R)-1-[2-chloro-3-(4-piperidinyloxy)phenyl]ethyl}oxy)-2-thiophenecarboxamide] had a half-maximal inhibitory concentration (IC50) of less than 0.5 µM.

In turn, `C[C@@H](Oc1cc(-n2cnc3ccc(CS(C)(=O)=O)cc32)sc1C(N)=O)c1cccc(OCC2CCNCC2)c1Cl` [Example 56, 3-[((1R)-1-{2-chloro-3-[(4-piperidinylmethyl)oxy]phenyl}ethyl)oxy]-5-{6-[(methylsulfonyl)-methyl]-1H-benzimidazol-1-yl}-2-thiophenecarboxamide] gave a half-inhibitory concentration (IC50) greater than 1 µM.

In turn, `CN1CCC(Oc2cccc(COc3cc(-n4cnc5cc(-c6cnn(C)c6)ccc54)sc3C(N)=O)c2)CC1` [Example 84, 3-[({3-[(1Methyl-4piperidinyl)oxy]phenyl}methyl)oxy]-5-[5-(1-methyl-1H-pyrazol-4-yl)-1H-benzimidazol-1-yl]-2-thiophenecarboxamide] registered a half-maximal inhibitory concentration (IC50) of 0.5 to 1 µM.

The molecule `Cc1nnc(-c2ccc3c(c2)ncn3-c2cc(O[C@H](C)c3cccc(OC4CCNCC4)c3Cl)c(C(N)=O)s2)o1` [Example 87, 3-({(1R)-1-(2-Chloro-3-(4-piperidinyloxy)phenyl]ethyl}oxy)-5-[5-(5-methyl-1,3,4-oxadiazol-2-yl)-1H-benzimidazol-1-yl]-2-thiophenecarboxamide] showed an IC50 of less than 0.5 µM.

`C[C@@H](Oc1cc(-n2cnc3cc(Cl)ccc32)sc1C(N)=O)c1cccc(OC2CCN(CCN)CC2)c1Cl` [Example 22, 3-{[(1R)-1-(3-{[1-(2-aminoethyl)-4-piperidinyl]oxy}-2-chlorophenyl)ethyl]oxy}-5-(5-chloro-1H-benzimidazol-1-yl)-2-thiophenecarboxamide] came in with a half-inhibitory concentration (IC50) of less than 0.5 µM.

As for `C[C@@H](Oc1cc(-n2cnc3ccccc32)sc1C(N)=O)c1cccc(OCCN2CCOCC2)c1Cl` [Example 15, 5-(1H-benzimidazol-1-yl)-3-{[(1R)-1-(2-chloro-3-{[2-(4-morpholinyl)ethyl]oxy}phenyl)ethyl]oxy)-2-thiophenecarboxamide], the concentration for half-maximal inhibition (IC50) was less than 0.5 µM.

In turn, `CC(Oc1cc(-n2cnc3cc(-c4cnn(C)c4)ccc32)sc1C(N)=O)c1cccc(OC2CCNCC2)n1` (racemic) [Example 81, (±)-5-[5-(1-Methyl-1H-pyrazol-4-yl)-1H-benzimidazol-1-yl]-3-({1-[6-(4-piperidinyloxy)-2-pyridinyl]ethyl}oxy)-2-thiophenecarboxamide] displayed an IC50 greater than 1 µM.

For `C[C@@H](Oc1cc(-n2cnc3ccc(OC(F)(F)F)cc32)sc1C(N)=O)c1cccc(OC2CCNCC2)c1Cl` [Example 63, 3-({(1R)-1-[2-chloro-3-(4-piperidinyloxy)phenyl]ethyl}oxy)-5-[6-[(trifluoromethyl)oxy]-1H-1-benzimidazol-1-yl}-2-thiophenecarboxamide], the half-maximal inhibitory concentration (IC50) is less than 0.5 µM.

Take `Cc1ccc(-c2ccc3c(c2)ncn3-c2cc(O[C@H](C)c3cccc(OC4CCNCC4)c3Cl)c(C(N)=O)s2)cn1` [Example 9, 3-({(1R)-1-[2-chloro-3-(4-piperidinyloxy)phenyl]ethyl}oxy)-5-[5-(6-methyl-3-pyridinyl)-1H-benzimidazol-1-yl]-2-thiophenecarboxamide]: the half-inhibitory concentration (IC50) is less than 0.5 µM.

As for `CC(Oc1cc(-n2cnc3cc(-c4cnn(C)c4)ccc32)sc1C(N)=O)c1ccnc(OC2CCNCC2)c1` (racemic) [Example 79, (±)-5-[5-(1-Methyl-1H-pyrazol-4-yl)-1H-benzimidazol-1-yl]-3-({1-[2-(4-piperidinyloxy)-4-pyridinyl]ethyl}oxy)-2-thiophenecarboxamide], the IC50 was greater than 1 µM.

`C[C@@H](Oc1cc(-n2cnc3cc(Cl)ccc32)sc1C(N)=O)c1cccc(OCCN2CCOCC2)c1Cl` [Example 26, 5-(5-Chloro-1H-benzimidazol-1-yl)-3-{[(1R)-1-(2-chloro-3-{[2-(4-morpholinyl)ethyl]oxy}phenyl)ethyl]oxy}-2-thiophenecarboxamide] displayed an IC50 of less than 0.5 µM.

In the case of `CC(Oc1cc(-n2cnc3cc(-c4cnn(C)c4)ccc32)sc1C(N)=O)c1ccnc(OC2CCNCC2)n1` (racemic) [Example 77, (±)-5-[5-(1-Methyl-1H-pyrazol-4-yl)-1H-benzimidazol-1-yl]-3-({1-[2-(4-piperidinyloxy-4-pyrimidinyl]ethyl}oxy)-2-thiophenecarboxamide], the IC50 was greater than 1 µM.

The molecule `C[C@@H](Oc1cc(-n2cnc3cc(OC(F)(F)F)ccc32)sc1C(N)=O)c1cccc(OC2CCN(C)CC2)c1Cl` [Example 62, 3-[((1R)-1-{2-chloro-3-[(1-methyl-4-piperidinyl)oxy]phenyl}ethyl)oxy]-5-{5-[(trifluoromethyl)oxy]-1H-benzimidazol-1-yl}-2-thiophenecarboxamide] registered an IC50 of less than 0.5 µM.

The molecule `C[C@@H](Oc1cc(-n2cnc3cc(Cl)c(F)cc32)sc1C(N)=O)c1cccc(OC2CCN(C)CC2)c1Cl` [Example 68, 5-(5-Chloro-6-fluoro-1H-benzimidazol-1-yl)-3-[((1R)-1-{2-chloro-3-[(1-methyl-4-piperidinyl)oxy]phenyl}ethyl)oxy]-2-thiophenecarboxamide] showed a concentration for half-maximal inhibition (IC50) of less than 0.5 µM.

In the case of `C[C@@H](Oc1cc(-n2cnc3cc(Cl)ccc32)sc1C(N)=O)c1cccc(OC2CCN(CCO)CC2)c1Cl` [Example 20, 5-(5-Chloro-1H-benzimidazol-1-yl)-3-{((1R)-1-(2-chloro-3-{[1-(2-hydroxyethyl)-4-piperidinyl]oxy}phenyl)ethyl]oxy}-2-thiophenecarboxamide], the IC50 is less than 0.5 µM.

`C[C@@H](Oc1cc(-n2cnc3ccc(Cl)cc32)sc1C(N)=O)c1cccc(OC2CCN(C)CC2)c1Cl` [Example 53, 5-(6-Chloro-1H-benzimidazol-1-yl)-3-[((1R)-1-(2-chloro-3-([1-methyl-4-piperidinyl)oxy]phenyl)}oxy]-2-thiophenecarboxamide] yielded an IC50 of less than 0.5 µM.

With `C[C@@H](Oc1cc(-n2cnc3ccc(CS(C)(=O)=O)cc32)sc1C(N)=O)c1cccc(OC2CCN(C)CC2)c1Cl` [Example 55, 3-[((1R)-1-(2-chloro-3-[(1-methyl-4-piperidinyl)oxy]phenyl}ethyl)oxy]-5-(6-[(methylsulfonyl)methyl]1H-benzimidazol-1-yl}-2-thiophenecarboxamide], the IC50 was greater than 1 µM.

Take `C[C@@H](Oc1cc(-n2cnc3cc(Cl)ccc32)sc1C(N)=O)c1cccc(OC2CCNCC2)c1Cl` [Example 8, 5-(5-Chloro-1H-benzimidazol-1-yl)-3-({(1R)-1-[2-chloro-3-(4-piperidinyloxy)phenyl]ethyl}oxy)-2-thiophenecarboxamide]: the 50% inhibitory concentration (IC50) was less than 0.5 µM.
